In patent US20250270200A1, “CTPS1 INHIBITORS AND USES THEREOF” (Nimbus Clotho, Inc., priority 2022, published 2025):
Counter-ions that a name gives are not always drawn.

Target: T1, human CTPS1 (Homo sapiens, UniProt P17812)
T1 sequence (P17812 1-591): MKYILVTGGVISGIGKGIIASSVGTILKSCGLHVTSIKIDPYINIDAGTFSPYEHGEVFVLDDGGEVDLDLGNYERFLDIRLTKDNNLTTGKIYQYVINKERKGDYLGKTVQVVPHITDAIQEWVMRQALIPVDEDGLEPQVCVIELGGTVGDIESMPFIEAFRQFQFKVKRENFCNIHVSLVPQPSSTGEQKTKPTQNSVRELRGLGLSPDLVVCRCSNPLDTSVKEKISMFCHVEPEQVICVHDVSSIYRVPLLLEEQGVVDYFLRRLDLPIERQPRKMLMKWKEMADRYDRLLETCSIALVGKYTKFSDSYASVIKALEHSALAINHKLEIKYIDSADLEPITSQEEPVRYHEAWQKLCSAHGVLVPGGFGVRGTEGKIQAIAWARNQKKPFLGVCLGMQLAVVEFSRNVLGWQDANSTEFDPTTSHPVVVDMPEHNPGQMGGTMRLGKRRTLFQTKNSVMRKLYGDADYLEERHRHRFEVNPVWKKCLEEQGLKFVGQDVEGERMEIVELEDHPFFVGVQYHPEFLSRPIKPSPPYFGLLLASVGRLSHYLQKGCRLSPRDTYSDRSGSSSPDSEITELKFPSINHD
Assay: ADP-Glo assay, human CTPS1 enzyme inhibition
Type: biochemical
Conditions: wild-type human CTPS1, 25 nM enzyme; ADP-Glo; read-out: ADP-Glo_WT_hCTPS1—25 nM_IC50 (IC50)
Outline: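 Full-length tagged human CTPS1 (25 nM) pre-incubated 10 min at 25° C with compound, then 10 min with ATP (120 μM) and UTP (160 μM); reaction started with L-glutamine (100 μM) and GTP (60 μM), 1% DMSO, in HEPES pH 7.4, 10 mM Mg2+, 5 mM KCl, 2 mM DTT. Run within linear phase at 25° C; ADP measured by ADP-Glo luminescence.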

IC50 [nM] | Structure (SMILES)
5 to 25 | CCOc1cncc(-c2cnc(C(=O)N[C@H](CN3C[C@H]4CC[C@@H]3C4)c3cc(NS(=O)(=O)C4CC4)ccn3)s2)n1 [I-150, N-((R)-2-((1R,4S)-2-azabicyclo[2.2.1]heptan-2-yl)-1-(4-(cyclopropanesulfonamido)pyridin-2-yl)ethyl)-5-(6-ethoxypyrazin-2-yl)thiazole-2-carboxamide]
50 to 100 | CCOc1cncc(-c2cnc(C(=O)N[C@@H](CN3C[C@H]4C[C@@H](C3)C4)c3cc(NS(=O)(=O)C4CC4)ccn3)s2)n1 [I-151, N-((S)-2-((1R,5R)-3-azabicyclo[3.1.1]heptan-3-yl)-1-(4-(cyclopropanesulfonamido)pyridin-2-yl)ethyl)-5-(6-ethoxypyrazin-2-yl)thiazole-2-carboxamide]
5 to 25 | CCOc1cncc(-c2cnc(C(=O)N[C@H](CN3C[C@H]4C[C@@H](C3)C4)c3cc(NS(=O)(=O)C4CC4)ccn3)s2)n1 [I-152, N-((R)-2-((1R,5R)-3-azabicyclo[3.1.1]heptan-3-yl)-1-(4-(cyclopropanesulfonamido)pyridin-2-yl)ethyl)-5-(6-ethoxypyrazin-2-yl)thiazole-2-carboxamide]
25 to 50 | CCOc1cncc(-c2cnc(C(=O)N[C@@H](CN3CC4(CCC4)C3)c3cc(NS(=O)(=O)C4CC4)ccn3)s2)n1 [I-153, (S)-N-(1-(4-(cyclopropanesulfonamido)pyridin-2-yl)-2-(2-azaspiro[3.3]heptan-2-yl)ethyl)-5-(6-ethoxypyrazin-2-yl)thiazole-2-carboxamide]
5 to 25 | CCOc1cncc(-c2cnc(C(=O)N[C@H](CN3CC4(CCC4)C3)c3cc(NS(=O)(=O)C4CC4)ccn3)s2)n1 [I-154, (R)-N-(1-(4-(cyclopropanesulfonamido)pyridin-2-yl)-2-(2-azaspiro[3.3]heptan-2-yl)ethyl)-5-(6-ethoxypyrazin-2-yl)thiazole-2-carboxamide]
5 to 25 | CCOc1cncc(-c2cnc(C(=O)N[C@H](Cn3ccnn3)c3cc(NS(=O)(=O)C4CC4)ccn3)s2)n1 [I-156, (R)-N-(1-(4-(cyclopropanesulfonamido)pyridin-2-yl)-2-(1H-1,2,3-triazol-1-yl)ethyl)-5-(6-ethoxypyrazin-2-yl)thiazole-2-carboxamide]
25 to 50 | CCOc1cncc(-c2cnc(C(=O)N[C@@H](Cn3nccn3)c3cc(NS(=O)(=O)C4CC4)ccn3)s2)n1 [I-157, (S)-N-(1-(4-(cyclopropanesulfonamido)pyridin-2-yl)-2-(2H-1,2,3-triazol-2-yl)ethyl)-5-(6-ethoxypyrazin-2-yl)thiazole-2-carboxamide]
5 to 25 | CCOc1cncc(-c2cnc(C(=O)N[C@H](Cn3nccn3)c3cc(NS(=O)(=O)C4CC4)ccn3)s2)n1 [I-158, (R)-N-(1-(4-(cyclopropanesulfonamido)pyridin-2-yl)-2-(2H-1,2,3-triazol-2-yl)ethyl)-5-(6-ethoxypyrazin-2-yl)thiazole-2-carboxamide]
5 to 25 | O=C(NC(CN1C[C@H]2C[C@@H]1CO2)c1cc(NS(=O)(=O)C2CC2)ccn1)c1ncc(-c2cnn3ccc(Cl)cc23)s1 (stereo partly drawn) [I-159, N-(2-((1R,4R)-2-oxa-5-azabicyclo[2.2.1]heptan-5-yl)-1-(4-(cyclopropanesulfonamido)pyridin-2-yl)ethyl)-5-(5-chloropyrazolo[1,5-a]pyridin-3-yl)thiazole-2-carboxamide]
5 to 25 | CCOc1cncc(-c2cnc(C(=O)N[C@@H](CF)c3cc(NS(=O)(=O)C4CC4)ccn3)s2)n1 [I-160, (R)-N-(1-(4-(cyclopropanesulfonamido)pyridin-2-yl)-2-fluoroethyl)-5-(6-ethoxypyrazin-2-yl)thiazole-2-carboxamide]
≤ 5 | CCOc1cncc(-c2cnc(C(=O)N[C@H](CF)c3cc(NS(=O)(=O)C4CC4)ccn3)s2)n1 [I-161, (S)-N-(1-(4-(cyclopropanesulfonamido)pyridin-2-yl)-2-fluoroethyl)-5-(6-ethoxypyrazin-2-yl)thiazole-2-carboxamide]
50 to 100 | O=C(N[C@@H](CN1CCCC1)c1cc(NS(=O)(=O)C2CC2)ccn1)c1ncc(-c2cnn3ccc(Cl)cc23)s1 [I-162, (S)-5-(5-chloropyrazolo[1,5-a]pyridin-3-yl)-N-(1-(4-(cyclopropanesulfonamido)pyridin-2-yl)-2-(pyrrolidin-1-yl)ethyl)thiazole-2-carboxamide]
25 to 50 | O=C(N[C@H](CN1CCCC1)c1cc(NS(=O)(=O)C2CC2)ccn1)c1ncc(-c2cnn3ccc(Cl)cc23)s1 [I-163, (R)-5-(5-chloropyrazolo[1,5-a]pyridin-3-yl)-N-(1-(4-(cyclopropanesulfonamido)pyridin-2-yl)-2-(pyrrolidin-1-yl)ethyl)thiazole-2-carboxamide]
50 to 100 | CN(C)C[C@H](NC(=O)c1ncc(-c2cnn3ccc(Cl)cc23)s1)c1cc(NS(=O)(=O)C2CC2)ccn1 [I-164, (S)-5-(5-chloropyrazolo[1,5-a]pyridin-3-yl)-N-(1-(4-(cyclopropanesulfonamido)pyridin-2-yl)-2-(dimethylamino)ethyl)thiazole-2-carboxamide, formic acid salt]
5 to 25 | CN(C)C[C@@H](NC(=O)c1ncc(-c2cnn3ccc(Cl)cc23)s1)c1cc(NS(=O)(=O)C2CC2)ccn1 [I-165, (R)-5-(5-chloropyrazolo[1,5-a]pyridin-3-yl)-N-(1-(4-(cyclopropanesulfonamido)pyridin-2-yl)-2-(dimethylamino)ethyl)thiazole-2-carboxamide, formic acid salt]
50 to 100 | CCOc1cncc(-c2cnc(C(=O)N[C@H](c3cc(NS(=O)(=O)C4CC4)ccn3)[C@H](C)N3C[C@H]4C[C@@H]3CO4)s2)n1 [I-166, N-((1S,2S)-2-((1R,4R)-2-oxa-5-azabicyclo[2.2.1]heptan-5-yl)-1-(4-(cyclopropanesulfonamido)pyridin-2-yl)propyl)-5-(6-ethoxypyrazin-2-yl)thiazole-2-carboxamide]
25 to 50 | CCOc1cncc(-c2cnc(C(=O)N[C@H](c3cc(NS(=O)(=O)C4CC4)ccn3)[C@@H](C)N3C[C@H]4C[C@@H]3CO4)s2)n1 [I-167, N-((1S,2R)-2-((1R,4R)-2-oxa-5-azabicyclo[2.2.1]heptan-5-yl)-1-(4-(cyclopropanesulfonamido)pyridin-2-yl)propyl)-5-(6-ethoxypyrazin-2-yl)thiazole-2-carboxamide]
5 to 25 | CCOc1cncc(-c2cnc(C(=O)N[C@@H](c3cc(NS(=O)(=O)C4CC4)ccn3)[C@H](C)N3C[C@H]4C[C@@H]3CO4)s2)n1 [I-168, N-((1R,2S)-2-((1R,4R)-2-oxa-5-azabicyclo[2.2.1]heptan-5-yl)-1-(4-(cyclopropanesulfonamido)pyridin-2-yl)propyl)-5-(6-ethoxypyrazin-2-yl)thiazole-2-carboxamide]
25 to 50 | CCOc1cncc(-c2cnc(C(=O)N[C@@H](c3cc(NS(=O)(=O)C4CC4)ccn3)[C@@H](C)N3C[C@H]4C[C@@H]3CO4)s2)n1 [I-169, N-((1R,2R)-2-((1R,4R)-2-oxa-5-azabicyclo[2.2.1]heptan-5-yl)-1-(4-(cyclopropanesulfonamido)pyridin-2-yl)propyl)-5-(6-ethoxypyrazin-2-yl)thiazole-2-carboxamide]
> 100 | CCOc1ccn2ncc(-c3cnc(C(=O)NCc4cc(NS(=O)(=O)C5CC5)ccn4)s3)c2c1 [I-170, N-((4-(cyclopropanesulfonamido)pyridin-2-yl)methyl)-5-(5-ethoxypyrazolo[1,5-a]pyridin-3-yl)thiazole-2-carboxamide]
25 to 50 | CCOc1cncc(-c2ccc(C(=O)NCc3cc(NS(=O)(=O)C4CC4)ccn3)cn2)n1 [I-172, N-((4-(cyclopropanesulfonamido)pyridin-2-yl)methyl)-6-(6-ethoxypyrazin-2-yl)nicotinamide]
5 to 25 | CCOc1cncc(-c2ccc(C(=O)NCc3cc(NS(=O)(=O)C4CC4)ccn3)cc2F)n1 [I-173, N-((4-(cyclopropanesulfonamido)pyridin-2-yl)methyl)-4-(6-ethoxypyrazin-2-yl)-3-fluorobenzamide]
5 to 25 | CCOc1cncc(-c2ccc(C(=O)NCc3cc(NS(=O)(=O)C4CC4)ccn3)c(F)c2F)n1 [I-175, N-((4-(cyclopropanesulfonamido)pyridin-2-yl)methyl)-4-(6-ethoxypyrazin-2-yl)-2,3-difluorobenzamide]
5 to 25 | CCOc1cncc(-c2cnc(C(=O)N[C@H](C)c3cc(NS(=O)(=O)C4CC4)ccn3)s2)n1 [I-176, (R)-N-(1-(4-(cyclopropanesulfonamido)pyridin-2-yl)ethyl)-5-(6-ethoxypyrazin-2-yl)thiazole-2-carboxamide]
5 to 25 | CCOc1cncc(-c2cnc(C(=O)N[C@@H](C)c3cc(NS(=O)(=O)C4CC4)ccn3)s2)n1 [I-177, (S)-N-(1-(4-(cyclopropanesulfonamido)pyridin-2-yl)ethyl)-5-(6-ethoxypyrazin-2-yl)thiazole-2-carboxamide]
25 to 50 | CCOc1cncc(-c2cnc(C(=O)NCc3ccnc(NS(=O)(=O)C4CC4)n3)s2)n1 [I-178, N-((2-(cyclopropanesulfonamido)pyrimidin-4-yl)methyl)-5-(6-ethoxypyrazin-2-yl)thiazole-2-carboxamide]
